Assay results reported in patent US20210177879A1, “VITAMIN D RECEPTOR AGONIST” (Guanghzou University of Chinese Medicine, priority 2018, published 2021).

Assays:
IL-6, IL-10, IL-1β = assay: Determination of cytokines in intestinal tumor tissues by Elisa; type: in vivo, Balb/c mice; details: vs model group
Protocol: Experimental method: 90 Balb/c mice of 6-8 weeks were purchased from the Experimental Animal Center in Guangzhou University of Chinese Medicine, weighed about 18-22 g, and subjected to adaptive feeding for 10 days. Modeling was divided into three stages. In the first stage, except for the normal group of animals being given saline injection, each of the other animals were intraperitoneally injected with a carcinogen AOM (10 mg/kg), and given free access to 2% DSS water from the next day for 7 days, and then given access to replaced regular drinking water for 14 days. In the second stage, the animals were given free access to 2% DSS water for 10 days, and then given access to replaced regular drinking water for 14 days. In the third stage, the animals were given free access to 2% DSS water for 10 days, and then given access to replaced regular drinking water for 11 days. The normal group was given access to regular drinking water throughout the experiment. The diet, water drinking and body weights of the animals were recorded daily and DAI scores were made, and the animals were killed and harvested at the 10th week. In this experiment, the animals were divided into groups and administrated on the first day of a modeling period of the second stage, and the total number of groups was set to 5 groups. […]
The intestinal tumor tissues frozen and stored at −80° C. were taken and homogenized, and the homogenate was determined with a BCA kit for the total protein concentration thereof. The homogenate was diluted by 20 times and then determined by Elisa method for cytokines: IL-6, IL-10, and IL-1β. […]

[1] = system: SMB-231 pancreatic cancer cells; assay: In vitro proliferation inhibition of SMB-231 pancreatic cancer cells; type: cell-based; details: concentration of 1 uM; compared with blank control group
Protocol: (§1) The SMB-231 pancreatic cancer cells were thawed, and cultured in a changed medium after 24 hours. Medium preparation method: 6% serum, 1% of a bispecific antibody+a 1640 basal medium. After grown to confluent, the cells were digested and subcultured to expand the number of cells. When reached the required amount, the cells were digested by trypsin, centrifuged, and resuspended in PBS to prepare a cell suspension of 1×10^8 cells/ml. A part of the cell suspension was added with the monotropein, desacetyl asperulosidic acid, asperuloside, and asperulosidic acid respectively, and the inhibition rate (%) of tumor cell proliferation by each of these different compounds was examined.

[2] = system: transplanted tumor of SW1990 breast cancer cells; assay: Transplanted tumor of SW1990 breast cancer cells in nude mice; type: in vivo; details: 2 mg/kg in combination with 5-fluorouracil at half dose (20 mg/kg), once a day; effect comparable to 5-fluorouracil alone 40 mg/kg
Protocol: as §1, with “SW1990” for “SMB-231 pancreatic cancer”
Male adult nude mice, which had the body weights of 20-24 g, were purchased from Guangdong Medical Laboratory Animal Center. After 7 days of adaptive feeding of the animals, except for the blank group, the remaining animals were injected with 0.2 ml of a SW1990 cell suspension in PBS at ventrodorsal and scapula sites of them, the response conditions of the animals were observed, and the body weights of the animals were determined once a week. After 2 weeks of observation, the animals were grouped into the following groups according to tumor size: a blank group; a model group; a 5-fluorouracil control group (5-Full, 40 mg/kg); monotropein+5-fluorouracil (2 mg/kg monotropein+20 mg/kg 5-fluorouracil), desacetyl asperulosidic acid+5-fluorouracil (2 mg/kg desacetyl asperulosidic acid+20 mg/kg 5-fluorouracil), asperuloside+5-fluorouracil (2 mg/kg asperuloside+20 mg/kg 5-fluorouracil), asperulosidic acid+5-fluorouracil (2 mg/kg asperulosidic acid+20 mg/kg 5-fluorouracil), these groups being labeled as: Mo, As, Aa, Da. Each group included 8 animals; and administration was conducted once a day.
The status, death conditions, and eating and drinking conditions of the animals were observed daily. The body weights of the animals were determined once a week and the tumor size of the animals was determined every 4 days. The tumor volume of the animals was determined by using a vernier caliper. After 1 month of administration, the animals were sacrificed after blood was sampled from the orbit thereof, and the tumor was separated and weighed.

HT29 colon cancer cells = assay: In vitro proliferation inhibition of HT29 colon cancer cells; type: cell-based; details: concentration of 1 uM; compared with blank control group
Protocol: as §1, with “HT29” for “SMB-231 pancreatic cancer”

VDR = assay: Detection of acting target of monotropein: VDR expression (Western blot, immunohistochemistry); type: in vivo, Balb/c mice
Protocol: Experimental method: 90 Balb/c mice of 6-8 weeks were purchased from the Experimental Animal Center in Guangzhou University of Chinese Medicine, weighed about 18-22 g, and subjected to adaptive feeding for 10 days. Modeling was divided into three stages. In the first stage, except for the normal group of animals being given saline injection, each of the other animals were intraperitoneally injected with a carcinogen AOM (10 mg/kg), and given free access to 2% DSS water from the next day for 7 days, and then given access to replaced regular drinking water for 14 days. […] The diet, water drinking and body weights of the animals were recorded daily and DAI scores were made, and the animals were killed and harvested at the 10th week. […]
The animals were anesthetized and harvested, and the liver, spleen, thymus and testis were weighed to calculate the organ coefficient; the colon tissue was taken, measured with a ruler for the length, and measured with a vernier caliper for the thickness, and the number and size of tumors and degree of colonic ulceration and adhesion were recorded; respective tissues were cut into small pieces and fixed, and the remaining tissues were frozen and stored; and the fixed tissues were used for HE staining and immunohistochemistry.
A potential acting target of monotropein for interfering with the colon cancer was detected.

[3] = system: SW1990 breast cancer cells; assay: In vitro proliferation inhibition of SW1990 breast cancer cells; type: cell-based; details: concentration of 1 uM; compared with blank control group
Protocol: as §1, with “SW1990” for “SMB-231 pancreatic cancer”

SMILES: O=C(O)C1=CO[C@@H](O[C@@H]2O[C@H](CO)[C@@H](O)[C@H](O)[C@H]2O)[C@H]2[C@@H]1C=C[C@]2(O)CO [monotropein]
- level of IL-10 in tumor tissues (IL-6, IL-10, IL-1β; high-dose monotropein (8 mg/kg) and positive drug 5-ASA (100 mg/kg)): no significant differences
- level of IL-10 in tumor tissues (IL-6, IL-10, IL-1β; low-dose monotropein (2 mg/kg)): extremely significantly up-regulated
- proliferation of SMB-231 pancreatic cancer cells in vitro [1]: significantly inhibit the proliferation
- tumor proliferation in SW1990 tumor-bearing mice [2]: significantly inhibit tumor proliferation
- proliferation of HT29 colorectal cancer cells in vitro (HT29 colon cancer cells): significantly inhibit the proliferation
- expression of VDR, immunohistochemistry (VDR; colon cancerous sites of AOM/DSS mice): up-regulated the expression of VDR
- expression of intestinal VDR, Western blot (VDR; colon of AOM/DSS mice): mainly promoted the expression of intestinal VDR
- proliferation of SW1990 cells in vitro [3]: significantly inhibit the proliferation
